# Legend:
# [1] = Cell viability MTT assay in Vero E6 cells; format: cell-based; conditions: African green monkey
# Procedure: (§1) HepG2.2.15 and HuS-E/2 cells were seeded at 1×10^4 cells/well in a 96-well plate for 20 h, then the cells were treated with the tested compounds at various concentration (0-500 μM) for 48 h. After the treatment, cell viability was examined using MTT [3-(4,5-dimethylthiazol-2-yl)-2,5-diphenyl tetrazolium bromide] assay (Sigma Chemical Co.). Briefly, a final concentration of 0.5 mg/ml MTT was added to each well and the samples were incubated for 1 h at 37° C., and then the supernatant was aspirated. The MTT-formazan crystals formed by metabolically viable cells were dissolved in 70 μl of DMSO, and the absorbance at 550 nm was measured on a microplate reader.
# (§2) The compounds used were SH-001, SH-002, and SH-003. Before testing their potential antiviral effect on HBV and HDV infection, we first examined their toxicity on VeroE6 cells, HepG2.2.15 cells and HuS-E/2 immortalized human primary hepatocytes cells at concentration from 0 to 320 μM as indicated.
# [2] = Cell viability MTT assay in HepG2.2.15 cells; format: cell-based; conditions: human, 0-320 μM
# Procedure: as §1, §2
# [3] = Cell viability MTT assay in HuS-E/2 cells; format: cell-based; conditions: human
# Procedure: as §1, §2
# HBV [4] = assay: Inhibition of HBV replication in HepG2.2.15 cells (HBsAg and HBeAg by ELISA, HBV DNA by real-time PCR); format: cell-based, Hepatitis B virus (ayw subtype); conditions: 48 h; for HBeAg levels reduced to (percentage of non-drug-treated control) / HBsAg levels reduced to (percentage of non-drug-treated control) / amount of HBV DNA in culture medium: 10 μM; for HBeAg levels reduced to (percentage of non-drug-treated control) / HBsAg levels reduced to (percentage of non-drug-treated control): culture medium; for HBeAg levels reduced to (percentage of non-drug-treated control) / HBsAg levels reduced to (percentage of non-drug-treated control) / levels of HBeAg in the culture supernatant (in words) / levels of HBsAg in the culture supernatant (in words) / IC50: ELISA; for amount of HBV DNA in culture medium: untreated cells 3.43*10^5 copies/ml; for levels of HBeAg in the culture supernatant (in words) / levels of HBsAg in the culture supernatant (in words) / HBV DNA (in words) / IC50: HepG2.2.15 cells; for HBV DNA (in words): Q-PCR, dose-dependent; for IC50: Hepatitis B virus, estimated
# From the text: Plasmid p1.3HBcl, which contains a 1.3-fold HBV genome (ayw subtype), was used as standard in parallel PCR reactions. The results are expressed as a percentage of the non-drug-treated positive control (NT) and are shown as mean±SD for three independent experiments.
# Continuous HBV proliferation can be achieved in HepG2.2.15 cells (RRID:CVCL_L855) stably transfected with the HBV genome of the ayw subtype. HepG2.2.15 cells were maintained in Dulbecco's modified Eagle medium (DMEM; Invitrogen) supplemented with 10% heat-inactivated fetal bovine serum (FBS; Thermo) plus 100 units of penicillin and 100 μg of streptomycin per ml (both from Invitrogen).
# The viruses were then collected from the supernatant. Q-PCR was used to detect HBV DNA as an index of efficiency of HBV replication. Next, the HBV HBsAg and HBeAg were examined by ELISA assay.
# The culture medium from compound-treated HepG2.2.15 cells was clarified by centrifugation at 1,000×g at 4° C. for 10 min, and then the supernatant was layered on top of a 20% sucrose cushion (20% sucrose, 20 mM HEPES, pH 7.4, 0.1% bovine serum albumin [BSA]) and centrifuged at 197,000×g for 3 h at 4° C. to pellet the HBV particles. The particles were then concentrated 100 fold to detect HBV DNA.
# Q-PCR was performed to detect HBV DNA as an efficiency index of HBV replication. Moreover, the HBV HBsAg and HBeAg were examined by ELISA assay.
# HBV [5] = assay: In vitro antiviral IC50 compared with Lamifudine in the same human liver cell line; format: cell-based; conditions: human liver cell line as the host
# From the text: The potency difference is significant.
# HDV = assay: Inhibition of HDV infection/replication in HuS-E/2 cells (HDV RNA by real-time PCR); conditions: for HDV RNA levels reduced to (percentage of non-drug-treated control): HuS-E/2 cells, 18 h infection + 48 h; for IC50: Hepatitis delta virus, HuS-E/2, read-out: IC50 (HDV RNA); for HDV replication (in words): HuS-E/2 human hepatocytes
# Procedure: HDV genome was measured by RT-PCR and expressed as the percentage of the value for the non-drug-treated controls (NT). Control PCRs were performed for endogenous GAPDH mRNA as the loading control. […] The results are the mean±SD for three independent experiments.
# HuS-E/2 cells that retain primary hepatocyte characteristics after prolonged culture were utilized for HDV infection. For HDV infection, HuS-E/2 cells were differentiated with 1% DMSO for 5-7 days, and HDV virus particles were added to infect and replicate in HuS-E/2 cells (MOI=10) as described by Huang et al. (J Virol. 2012 September; 86(17):9443-53. Epub 2012 Jun. 27) The HuS-E/2 cells are useful to assay infectivity of HDV, and screening of anti-HDV agents.
# The compounds were added to the medium at the indicated concentration during infection with HDV for 18 h, then the infected cells were incubated in medium containing the compounds for further 48 h. Real-time PCR was performed to detect HDV RNA as an efficiency index of HDV infection.
# Total DNA was extracted with a Genomic DNA isolation kit (Nexttec Biotechnologie, Germany). Total RNA was isolated from cultured cells using TRIzol® reagent (Invitrogen). Reverse transcription was performed with the RNA templates, AMV reverse transcriptase (Roche), and oligo-dT primer. The products were subjected to real-time PCR with primer sets of specific genes and SYBR Green PCR Master Mix (Bio-Rad). The primer sets used for HBV DNA and HDV RNA were as described by Huang et al. (J Virol. 2012 September; 86(17):9443-53. Epub 2012 Jun. 27) The results were analyzed with the iCycler iQ real-time PCR detection system (Bio-Rad).
# The infected cells were then washed and incubated in medium containing the tested compounds for further 48 h, and real-time PCR was used to detect HDV mRNA as an efficiency index of HDV infection.
Structure (SMILES),CC50 at 48 h [1] [µM],CC50 at 48 h [2] [µM],HBeAg levels reduced to (percentage of non-drug-treated control) (HBV [4]) [%],HBsAg levels reduced to (percentage of non-drug-treated control) (HBV [4]) [%],amount of HBV DNA in culture medium (HBV [4]),levels of HBeAg in the culture supernatant (in words) (HBV [4]),levels of HBsAg in the culture supernatant (in words) (HBV [4]),HBV DNA (in words) (HBV [4]),IC50 (HBV [4]; read-out: IC50 (HBeAg)) [µM],IC50 (HBV [4]; read-out: IC50 (HBsAg)) [µM],IC50 (HBV [5]; Hepatitis B virus) [µM],IC50 (HDV) [µM],HDV replication (in words) (HDV),also measured
CC(N)C(=O)OCN1C(=O)N/C(=C\c2cnn3c(NC4CC4)cc(Nc4cc(Cl)ccc4F)nc23)C1=O (stereo not shown) [SH-003],> 205,,,,,,,,,,,,,
O=C1NC(=O)/C(=C/c2cnn3c(NC4CC4)cc(Nc4cc(Cl)ccc4F)nc23)N1 [SH-002],> 61.3,> 164,61.18±6.43,52.01±3.05,3.13*10^4 copies/ml,significantly decreased,significantly decreased,repressed,168,11.8,≥ 0.005,~0.069,significantly inhibited,CC50 at 48 h [3]: > 164 µM; HDV RNA levels reduced to (percentage of non-drug-treated control) (HDV; 0.1 μM): 53.1±16.8%; HDV RNA levels reduced to (percentage of non-drug-treated control) (HDV; 0.2 μM): 40.8±18.6%
"Nc1ccn([C@@H]2CS[C@H](CO)O2)c(=O)n1 [Lamifudine, reference compound]",,,,,,,,,,,,,,IC50 (HBV [5]): 0.358 µM
"O=C(O)c1ccc2c(c1)nc(Nc1cccc(Cl)c1)c1ccncc12 [SH-001, Silmitasertib]",,> 195,53.66±3.02,39.85±1.78,5.51*10^4 copies/ml,significantly decreased,significantly decreased,repressed,12,6.63,≥ 0.005,~0.146,significantly inhibited,"CC50 at 48 h ([1]; VeroE6 cells, 48 h, MTT, 0-320 μM, read-out: CC50): > 205 µM; CC50 at 48 h ([3]; HuS-E/2 cells, 48 h, MTT, 0-320 μM, read-out: CC50): > 195 µM; HDV RNA levels reduced to (percentage of non-drug-treated control) (HDV; 2.5 μM): 28.8±22.8%; HDV RNA levels reduced to (percentage of non-drug-treated control) (HDV; 5 μM): 8.7±1.3%"

# Reference: patent publication US20210308137A1, “ANTIVIRAL COMPOUNDS AND METHOD FOR TREATING HEPATOTROPIC VIRAL INFECTION, PARTICULARLY HEPATITIS B AND HEPATITIS D” (priority 2020, published 2021)
